Measured values reported in patent US10323019B2, “Pyrazolylaminobenzimidazole derivatives as JAK inhibitors” (Eli Lilly and Company, priority 2016, dated 2019).

Key:
[1] = biological target: JAK2 (Homo sapiens (Human), UniProt O60674); assay: JAK LanthaScreen Kinase Assay (TR-FRET), JAK2 in vitro enzyme assay; type: biochemical; details: 5 μM ATP
Protocol: (§1) The JAK LanthaScreen™ Kinase Assay (Invitrogen) is used to determine the ability of test compounds to inhibit JAK1, JAK2, and JAK3 kinase activity. These are TR-FRET assay formats that use long-lifetime terbium labeled antibody as the donor species and GFP-STAT1 as the acceptor species. Use the TR-FRET ratio to monitor JAK kinase activity where an increase in phosphorylation of the GFP-STAT1 results in an increase in the TR-FRET ratio. Perform the kinase reaction using a 12.5 μl reaction volume in shallow black 384-well Proxiplate®. Add reagents to obtain final reaction conditions of […], 1.76 mM Triton X-100, ATP (20.0 μM for JAK1 and JAK3 or 5 μM for JAK2) enzyme assays, 10.0 mM MgCl2, 1 mM EGTA and 0.01% Brij-35, […] GFP-STAT1, 14 nM JAK1 enzyme for JAK1, 1.0 nM for JAK2 or 2.5 nM for JAK3 enzyme assays, and 4% DMSO and serial dilutions of test compound (diluted 1:3 from 20,000 to 1 nM). Following ATP/GFP-STAT1 addition, centrifuge the assay plates for 1 minute at 1000 revolutions per minute (RPM). Allow the plates to incubate at RT for 60 minutes and then add 12.5 μl of a stopping buffer containing 20 mM EDTA, 2 nM Terbium-anti-phosphorylated Signal Transducers and Activators of Transcription [phosphorylation Tyrosine 701 amino acid] […] Use ACTIVITYBASE® 4.0 to fit the percent inhibition and ten-point compound concentration data to a four-parameter logistic equation.

[2] = biological target: T1, JAK1 (Homo sapiens (Human), UniProt P23458); assay: JAK LanthaScreen Kinase Assay (TR-FRET), JAK1 in vitro enzyme assay; type: biochemical; details: 20.0 μM ATP
T1 sequence (P23458 whole entry): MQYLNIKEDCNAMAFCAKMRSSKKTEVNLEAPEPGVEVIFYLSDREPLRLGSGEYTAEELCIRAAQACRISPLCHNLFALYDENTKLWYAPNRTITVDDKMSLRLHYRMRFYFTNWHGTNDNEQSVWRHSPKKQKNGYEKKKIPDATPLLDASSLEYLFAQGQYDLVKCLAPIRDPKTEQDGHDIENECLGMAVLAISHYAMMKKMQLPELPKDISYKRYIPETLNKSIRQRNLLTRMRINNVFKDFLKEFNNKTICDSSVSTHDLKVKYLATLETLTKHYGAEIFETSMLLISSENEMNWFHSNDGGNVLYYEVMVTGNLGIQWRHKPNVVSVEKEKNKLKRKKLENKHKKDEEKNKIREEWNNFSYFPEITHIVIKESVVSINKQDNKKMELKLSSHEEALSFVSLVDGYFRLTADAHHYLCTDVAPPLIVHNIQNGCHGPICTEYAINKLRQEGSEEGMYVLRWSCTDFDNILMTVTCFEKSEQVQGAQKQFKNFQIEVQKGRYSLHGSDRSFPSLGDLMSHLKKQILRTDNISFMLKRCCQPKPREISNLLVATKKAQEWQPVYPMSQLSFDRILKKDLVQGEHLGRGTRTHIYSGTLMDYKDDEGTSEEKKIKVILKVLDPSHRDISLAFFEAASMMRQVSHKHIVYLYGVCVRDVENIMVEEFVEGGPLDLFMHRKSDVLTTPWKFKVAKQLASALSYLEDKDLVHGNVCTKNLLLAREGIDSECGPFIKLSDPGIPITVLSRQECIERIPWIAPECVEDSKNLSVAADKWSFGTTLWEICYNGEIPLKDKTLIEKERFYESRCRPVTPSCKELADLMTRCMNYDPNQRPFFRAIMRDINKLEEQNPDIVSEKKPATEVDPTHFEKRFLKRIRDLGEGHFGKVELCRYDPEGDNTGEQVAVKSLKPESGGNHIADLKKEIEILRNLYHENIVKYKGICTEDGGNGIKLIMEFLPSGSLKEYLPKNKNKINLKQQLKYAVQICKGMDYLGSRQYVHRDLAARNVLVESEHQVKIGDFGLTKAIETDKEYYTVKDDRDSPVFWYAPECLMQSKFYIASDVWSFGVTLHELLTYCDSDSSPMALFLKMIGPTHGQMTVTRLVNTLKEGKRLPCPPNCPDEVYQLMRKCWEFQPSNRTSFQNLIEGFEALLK
Protocol: as §1

[3] = biological target: JAK3 (Homo sapiens (Human), UniProt P52333); assay: JAK LanthaScreen Kinase Assay (TR-FRET), JAK3 in vitro enzyme assay; type: biochemical; details: 20.0 μM ATP
Chain of JAK3 (P52333 whole entry): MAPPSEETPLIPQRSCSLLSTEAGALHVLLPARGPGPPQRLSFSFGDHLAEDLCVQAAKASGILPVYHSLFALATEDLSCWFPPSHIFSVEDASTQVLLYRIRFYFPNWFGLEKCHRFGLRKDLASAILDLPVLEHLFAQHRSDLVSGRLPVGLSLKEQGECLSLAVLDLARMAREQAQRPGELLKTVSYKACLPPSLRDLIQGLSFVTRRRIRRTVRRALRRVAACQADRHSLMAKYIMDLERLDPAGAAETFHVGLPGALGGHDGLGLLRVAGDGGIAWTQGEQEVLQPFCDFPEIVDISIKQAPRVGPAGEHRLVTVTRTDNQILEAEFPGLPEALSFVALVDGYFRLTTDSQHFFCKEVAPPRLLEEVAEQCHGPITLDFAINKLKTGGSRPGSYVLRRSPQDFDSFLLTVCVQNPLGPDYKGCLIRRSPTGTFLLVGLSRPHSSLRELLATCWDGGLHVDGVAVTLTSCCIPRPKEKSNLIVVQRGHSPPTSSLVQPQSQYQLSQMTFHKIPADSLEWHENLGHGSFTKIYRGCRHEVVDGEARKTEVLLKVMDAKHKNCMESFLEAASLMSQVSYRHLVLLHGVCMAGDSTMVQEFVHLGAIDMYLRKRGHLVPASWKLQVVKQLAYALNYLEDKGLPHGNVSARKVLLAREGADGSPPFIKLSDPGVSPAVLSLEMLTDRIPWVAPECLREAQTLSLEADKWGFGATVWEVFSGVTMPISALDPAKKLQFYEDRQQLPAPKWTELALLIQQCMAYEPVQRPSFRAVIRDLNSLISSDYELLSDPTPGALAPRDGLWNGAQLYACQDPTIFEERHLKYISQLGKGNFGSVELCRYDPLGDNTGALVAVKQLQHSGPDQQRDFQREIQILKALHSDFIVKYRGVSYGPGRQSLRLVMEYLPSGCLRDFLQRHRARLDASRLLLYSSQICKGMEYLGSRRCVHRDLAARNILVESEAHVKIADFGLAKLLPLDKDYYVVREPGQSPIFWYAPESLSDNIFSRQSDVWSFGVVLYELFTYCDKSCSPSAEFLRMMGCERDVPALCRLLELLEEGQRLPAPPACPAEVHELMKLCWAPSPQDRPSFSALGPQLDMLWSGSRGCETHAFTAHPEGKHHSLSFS
Protocol: as §1

[4] = biological target: T1, JAK1; assay: AlphaScreen SureFire p-STAT3-(p-Tyr705)-IL6-TF-1-JAK1 cell-based assay; details: TF-1 cells, IL6 30 ng/mL, pSTAT3
Protocol: AlphaScreen SureFire Protocol p-STAT3-(p-Tyr705)-IL6-TF-1-JAK1 Cell-Based Assay
The JAK1 cell based assay described below is used to determine the JAK1 cellular potency of test compounds.
Cell preparation: Starve TF-1 cells in DMEM medium with 0.5% […] and 1× Pen/Strep at 37° C. Plate 100K cells per well in BD 96 well black plates with clear bottoms. Maintain the plates at RT for 30-60 minutes before incubating overnight at 37° C., and 5% CO2. Count cells using Vi-Cell counter, using a cell suspension at […] and plated 100 μL/well in […] Biocoat plates (Catalog #354640).
Test compound preparation and treatment: Prepare compounds at 1:3 serial dilutions in DMSO and further dilute into the medium. Test compounds in a range of 10 point concentrations from 20,000 to 1 nM. Add diluted compound to corresponding cell plates. Incubate the plates at 37° C. for 20 min. Add IL6 solution at the final concentration 30 ng/mL to corresponding cell plates and continue to incubate at 37° C. for 30 min. Remove media and add 50 μL 1× lysis buffer to each well.
pSTAT3 detection: Perform the following steps sequentially: make acceptor mix (activation buffer/reaction buffer/acceptor beads); transfer 4 μL lysate from 96 well plates to 384 well-Proxiplates; add 5 μL acceptor mix to 384 proxiplate plate(s) and seal plates with aluminum seal; shake 1-2 minutes on plate shaker; incubate plate at RT for 2 hr with gentle shaking; make donor mix (donor beads in dilution buffer); add 2 μL donor mix to assay plates; seal plates with aluminum seal; shake 1-2 minutes on plate shaker; incubate at RT for 2 hr with gentle shaking; read plate with Envision; protocol AlphaScreen Surefire 384.

Chain of JAK2 (O60674 whole entry): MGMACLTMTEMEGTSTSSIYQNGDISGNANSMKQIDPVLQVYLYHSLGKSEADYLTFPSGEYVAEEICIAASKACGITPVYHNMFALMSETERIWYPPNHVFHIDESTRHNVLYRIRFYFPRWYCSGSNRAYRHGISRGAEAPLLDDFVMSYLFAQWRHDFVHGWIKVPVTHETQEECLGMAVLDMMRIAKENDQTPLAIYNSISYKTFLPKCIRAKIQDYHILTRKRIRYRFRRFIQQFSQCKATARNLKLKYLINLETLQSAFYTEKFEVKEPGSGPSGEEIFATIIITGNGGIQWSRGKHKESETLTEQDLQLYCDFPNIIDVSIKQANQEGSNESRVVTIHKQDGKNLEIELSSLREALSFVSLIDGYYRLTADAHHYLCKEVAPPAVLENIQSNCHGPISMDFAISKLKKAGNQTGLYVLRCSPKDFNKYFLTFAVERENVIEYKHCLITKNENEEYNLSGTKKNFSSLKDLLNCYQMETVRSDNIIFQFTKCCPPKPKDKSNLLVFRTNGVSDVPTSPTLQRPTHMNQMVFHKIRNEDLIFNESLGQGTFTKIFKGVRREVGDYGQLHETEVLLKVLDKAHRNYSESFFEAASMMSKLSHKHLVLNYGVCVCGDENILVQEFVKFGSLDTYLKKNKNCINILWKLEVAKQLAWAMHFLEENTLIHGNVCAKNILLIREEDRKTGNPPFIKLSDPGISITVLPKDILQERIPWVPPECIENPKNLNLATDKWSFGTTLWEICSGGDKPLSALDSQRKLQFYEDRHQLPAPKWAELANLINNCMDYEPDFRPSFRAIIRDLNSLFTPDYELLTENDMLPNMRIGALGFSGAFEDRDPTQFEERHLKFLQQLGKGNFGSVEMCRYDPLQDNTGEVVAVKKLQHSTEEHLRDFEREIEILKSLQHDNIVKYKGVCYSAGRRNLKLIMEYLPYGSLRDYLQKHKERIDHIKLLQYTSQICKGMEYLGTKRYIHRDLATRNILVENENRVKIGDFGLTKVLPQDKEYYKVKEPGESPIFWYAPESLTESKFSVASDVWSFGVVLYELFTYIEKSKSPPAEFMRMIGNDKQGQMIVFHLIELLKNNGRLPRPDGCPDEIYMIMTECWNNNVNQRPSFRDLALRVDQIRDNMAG

SMILES | IC50 [1] [nM] | IC50 [2] [nM] | IC50 [3] [nM] | IC50 [4] [nM]
COCCCn1nc(Nc2cc(O[C@H]3CC[C@@H](NC[C@@H](O)C(F)(F)F)CC3)cc3c2ncn3C)cc1C [Example 1, (2R)-1,1,1-Trifluoro-3-({cis-4-[(4-{[1-(3-methoxypropyl)-5-methyl-1H-pyrazol-3-yl]amino}-1-methyl-1H-benzimidazol-6-yl)oxy]cyclohexyl}amino)propan-2-ol] | 1200 ± 550 | 3.25 ± 0.99 | 3720 ± 1300 | 0.154 ± 0.023
COCCn1nc(Nc2cc(O[C@H]3CC[C@@H](NC[C@@H](O)C(F)(F)F)CC3)cc3c2ncn3C)cc1C [Example 2, (2R)-1,1,1-Trifluoro-3-({cis-4-[(4-{[1-(2-methoxyethyl)-5-methyl-1H-pyrazol-3-yl]amino}-1-methyl-1H-benzimidazol-6-yl)oxy]cyclohexyl}amino)propan-2-ol] |  |  |  | 0.275 ± 0.102
